Molecular target: Recombinant human factor B (Homo sapiens (Human), UniProt P00751)
Test: Human Complement Factor B TR-FRET Assay (displacement of Cy5-labeled ligand)

Sequence of Recombinant human factor B (P00751 26-764): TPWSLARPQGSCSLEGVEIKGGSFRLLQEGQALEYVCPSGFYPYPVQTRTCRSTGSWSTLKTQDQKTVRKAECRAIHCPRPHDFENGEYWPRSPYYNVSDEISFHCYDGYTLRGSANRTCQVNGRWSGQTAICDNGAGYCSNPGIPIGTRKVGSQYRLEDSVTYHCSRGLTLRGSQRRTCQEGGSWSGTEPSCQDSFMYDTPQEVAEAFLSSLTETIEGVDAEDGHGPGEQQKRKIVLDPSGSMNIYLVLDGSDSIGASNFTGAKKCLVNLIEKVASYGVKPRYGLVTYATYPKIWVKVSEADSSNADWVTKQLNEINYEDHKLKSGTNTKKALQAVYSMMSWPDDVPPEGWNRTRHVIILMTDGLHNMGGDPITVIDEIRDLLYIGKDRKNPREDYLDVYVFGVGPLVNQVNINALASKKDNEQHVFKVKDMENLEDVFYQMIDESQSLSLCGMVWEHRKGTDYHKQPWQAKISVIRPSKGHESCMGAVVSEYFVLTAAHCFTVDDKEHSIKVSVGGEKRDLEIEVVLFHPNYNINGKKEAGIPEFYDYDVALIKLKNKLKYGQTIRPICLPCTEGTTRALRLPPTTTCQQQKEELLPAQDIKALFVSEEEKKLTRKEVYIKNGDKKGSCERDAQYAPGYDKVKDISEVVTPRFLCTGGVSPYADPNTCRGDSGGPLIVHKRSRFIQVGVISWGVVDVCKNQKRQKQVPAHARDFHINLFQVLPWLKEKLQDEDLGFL

**Q.** Which IC50 does the source give for COc1cc(C)cc(C)c1C(OCC(N)=O)(c1nc2cc(C#N)ccc2[nH]1)C(F)(F)F (racemic) [Example 10-C, (±)-2-(1-(5-Cyano-1H-benzo[d]imidazol-2-yl)-2,2,2-trifluoro-1-(2-methoxy-4,6-dimethylphenyl)ethoxy)acetamide] here?
**A.** The IC50 was 0.47 µM.

**Q.** How did the IC50 turn out when CNC(c1nc2cc(C#N)ccc2[nH]1)(c1c(OC)cc(C)c(Br)c1C)C(F)(F)F (racemic) [Example 6-E, (±)-2-(1-(3-Bromo-6-methoxy-2,4-dimethylphenyl)-2,2,2-trifluoro-1-(methylamino)ethyl)-1H-benzo[d]imidazole-5-carbonitrile] was run?
**A.** The IC50 was 7 µM.

**Q.** Which IC50 does the source give for COc1cc(C)c(Br)c(C)c1C(O)(c1nc2cc(C#N)ccc2[nH]1)C(F)(F)F (racemic) [Example 4, (±)-2-(1-(3-bromo-6-methoxy-2,4-dimethylphenyl)-2,2,2-trifluoro-1-hydroxyethyl)-1H-benzo[d]imidazole-5-carbonitrile] here?
**A.** The IC50 was 98.9 µM.

Molecular target: human complement factor B (CVF-Bb complex) (Homo sapiens (Human), UniProt P00751)
Test: biochemical
Description: CVF-Bb complex prepared from purified cobra venom factor (1 μM), recombinant human complement factor B (expressed in drosophila cells and purified using standard methods) and human complement factor D (expressed in E. Coli, refolded and purified using standard methods). CVF-Bb complex at 3 nM concentration was incubated with test compound at various concentrations for 1 hour at room temperature in PBS pH 7.4 containing 10 mM MgCl2 and 0.05% (w/v) CHAPS. Human complement C3 substrate purified from plasma was added to a final concentration of 1 μM. After 1 hour incubation at room temperature, the enzyme reaction was stopped by addition of a cocktail of concentrated pan-protease inhibitors. The product of the reaction, C3a, was quantified by means of an enzyme-linked-immunosorbent assay.

**Q.** For COc1cc(C)cc(C)c1C(C)(O)c1nc2cc(C#N)ccc2[nH]1 (racemic) [Example 2-C, (±)-2-(1-Hydroxy-1-(2-methoxy-4,6-dimethylphenyl)ethyl)-1H-benzo[d]imidazole-5-carbonitrile], which IC50 is on record?
**A.** The IC50 was 1450 nM.

**Q.** For COc1cc(C)cc(C)c1C(O)c1nc2cc(C#N)ccc2[nH]1 (racemic) [Example 1-C, (±)-2-(Hydroxy(2-methoxy-4,6-dimethylphenyl)methyl)-1H-benzo[d]imidazole-5-carbonitrile], which IC50 is on record?
**A.** Its IC50 is 5750 nM.

**Q.** For COc1cc(C)cc(C)c1C(N)(c1nc2cc(C#N)ccc2[nH]1)C1CC1 (racemic) [Example 9-C, (±)-2-(Amino(cyclopropyl)(2-methoxy-4,6-dimethylphenyl)methyl)-1H-benzo[d]imidazole-5-carbonitrile], which IC50 is on record?
**A.** Its IC50 is 1500 nM.

**Q.** With COc1cc(C)cc(C)c1C(N)c1nc2cc(C#N)ccc2[nH]1 (racemic) [Example 7-D, (±)-2-(Amino(2-methoxy-4,6-dimethylphenyl)methyl)-1H-benzo[d]imidazole-5-carbonitrile] as the molecule, how does the IC50 read?
**A.** Its IC50 is 8700 nM.

**Q.** For COc1cc(C)cc(C)c1C(C)(N)c1nc2cc(C#N)ccc2[nH]1 (racemic) [Example 8-B, (±)-2-(1-Amino-1-(2-methoxy-4,6-dimethylphenyl)ethyl)-1H-benzo[d]imidazole-5-carbonitrile], which IC50 is on record?
**A.** Its IC50 is 6900 nM.

**Q.** CNC(c1nc2cc(C#N)ccc2[nH]1)(c1c(OC)cc(C)c(Cl)c1C)C(F)(F)F (racemic) [Example 6-B, (±)-2-(1-(3-Chloro-6-methoxy-2,4-dimethylphenyl)-2,2,2-trifluoro-1-(methylamino)ethyl)-1H-benzo[d]imidazole-5-carbonitrile] was tested. Which IC50 did it give?
**A.** Its IC50 is 1980 nM.

**Q.** With CNC(c1nc2cc(C#N)ccc2[nH]1)(c1c(OC)cc(C)cc1OC)C(F)(F)F (racemic) [Example 12-D (B), (±)-2-(1-(2,6-dimethoxy-4-methylphenyl)-2,2,2-trifluoro-1-(methylamino)ethyl)-1H-benzo[d]imidazole-5-carbonitrile] as the molecule, how does the IC50 read?
**A.** Its IC50 is 11100 nM.

**Q.** With CNC(c1nc2cc(C#N)ccc2[nH]1)(c1ccc(C)cc1OC)C(F)(F)F (racemic) [Example 6-A, (±)-2-(2,2,2-Trifluoro-1-(2-methoxy-4-methylphenyl)-1-(methylamino)ethyl)-1H-benzo[d]imidazole-5-carbonitrile] as the molecule, how does the IC50 read?
**A.** Its IC50 is 380 nM.

**Q.** For CNC(c1nc2cc(C#N)ccc2[nH]1)c1c(OC)cc(C)cc1OC (racemic) [Example 12-D (A), (±)-2-((2,6-Dimethoxy-4-methylphenyl)(methylamino)methyl)-1H-benzo[d]imidazole-5-carbonitrile], which IC50 is on record?
**A.** The IC50 was 13900 nM.

**Q.** For CNC(c1nc2cc(C#N)ccc2[nH]1)(c1c(C)cccc1OC)C(F)(F)F (racemic) [Example 6-C, (±)-2-(2,2,2-Trifluoro-1-(2-methoxy-6-methylphenyl)-1-(methylamino)ethyl)-1H-benzo[d]imidazole-5-carbonitrile], which IC50 is on record?
**A.** The IC50 was 3130 nM.

**Q.** How did the IC50 turn out when COc1cc(C)cc(C)c1C(N)(c1nc2cc(C#N)ccc2[nH]1)C(F)(F)F (racemic) [Example 6-D, (±)-2-(1-Amino-2,2,2-trifluoro-1-(2-methoxy-4,6-dimethylphenyl)ethyl)-1H-benzo[d]imidazole-5-carbonitrile] was run?
**A.** Its IC50 is 1570 nM.

**Q.** Which IC50 does the source give for COc1cc(C)cc(C)c1C(O)(c1nc2cc(C#N)ccc2[nH]1)C(F)(F)F (racemic) [Example 3-B, (±)-2-(2,2,2-Trifluoro-1-hydroxy-1-(2-methoxy-4,6-dimethylphenyl)ethyl)-1H-benzo[d]imidazole-5-carbonitrile] here?
**A.** The IC50 was 390 nM.
